This passage reports IC50 results from patent US9145415B2, “Nitrogen-containing heterocyclic compound or salt thereof” (FUJIFILM Corporation, priority 2012, dated 2015).

Read-outs that look alike come from different tables or passages of the source. Bounds are passed on as bounds.

The target in test [1] is T1, human FLT3 protein (FLT3 (WT)) (Homo sapiens, UniProt P36888).
T1 construct: human FLT3 protein (intracellular region, 564 to 993 aa); GST; purchased Carna Biosciences; host or cells: baculovirus expression system
T1 sequence (P36888 564-993): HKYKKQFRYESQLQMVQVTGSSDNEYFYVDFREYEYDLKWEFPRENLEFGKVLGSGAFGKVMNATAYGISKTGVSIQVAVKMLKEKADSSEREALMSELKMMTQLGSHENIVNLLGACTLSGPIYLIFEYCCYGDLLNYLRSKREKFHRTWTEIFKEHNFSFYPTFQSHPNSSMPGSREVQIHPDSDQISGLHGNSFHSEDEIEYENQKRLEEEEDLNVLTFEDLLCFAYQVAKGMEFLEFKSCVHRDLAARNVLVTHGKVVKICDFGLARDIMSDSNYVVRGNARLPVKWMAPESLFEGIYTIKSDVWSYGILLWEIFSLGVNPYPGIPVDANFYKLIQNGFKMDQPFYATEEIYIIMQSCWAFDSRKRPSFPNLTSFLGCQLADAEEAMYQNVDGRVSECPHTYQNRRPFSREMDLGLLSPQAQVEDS
The experiment in a line: FLT3 inhibition test (FLT3 enzyme inhibition, time-resolved fluorescence of substrate peptide phosphorylation). It counts as biochemical. The note with it: read-out: FLT3 (WT) enzyme inhibition activity. Put shortly: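 Wild-type human FLT3 (1.2 μg) pre-incubated with compound 15 min at 25° C in 100 mM HEPES pH 7.5, 10 mM MgCl2, 25 mM NaCl, 1 mM DTT. Reaction started with substrate peptide and ATP (final 50 μM), run 30 min at 25° C; phosphorylation read by time-resolved fluorescence.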

A further test has as its system Molm-13 cells. Briefly: Leukemia cell proliferation inhibition test (ATPlite), Molm-13. It counts as cell-based. The settings on record: Homo sapiens, read-out: MOLM13 cell proliferation inhibition effect. Summed up:
(§1)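 Molm-13 or MV4-11 cells in RPMI with 10% FBS and pen/strep, seeded at 10,000 cells per well, were exposed to serially diluted compound for 72 hours at 37° C, 5% CO2. Total cellular ATP was read by luciferase luminescence. GI50 came from sigmoid fits against the 0.1% DMSO control, in duplicate.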

In the next test the test system is MV4-11 cells. The experiment in a line: Leukemia cell proliferation inhibition test (ATPlite), MV4-11. It counts as cell-based. The settings on record: Homo sapiens, read-out: MV4-11 cell proliferation inhibition effect. Put shortly:
as §1

Setting [2] is: GST-fused human FLT3 (564 to 993 aa), ATP 50 μM.
Setting [3] is: MOLM-13, 72 h, Molm-13, 72 hours culture, ATPlite, GI50 per method.
Setting [4] is: MV4-11, 72 h, MV4-11, 72 hours culture, ATPlite, GI50 per method.

On to `CCCNc1nc(Nc2cccc(OC(F)(F)F)c2)ncc1C#CCCCNC(=O)[C@H](C)N(C)C(=O)/C=C/CN(C)C` [Compound 11-10], for which the figures for the IC50 (in test [1] (setting [2]); in the test with Molm-13 cells (setting [3]); with MV4-11 cells (setting [4])) were below 10 nM, 10 to 100 nM and below 10 nM, respectively.
`COCCN(C)c1nc(Nc2ccc(C#N)cc2)ncc1C#CCCCNC(=O)[C@H](C)N(C)C(=O)/C=C/CN(C)C` [Compound 10-51]: the IC50 (in test [1] (setting [2]); with Molm-13 cells (setting [3]); in the test on MV4-11 cells (setting [4])) was below 10 nM throughout.
As for `C[C@@H](C(=O)NCCCC#Cc1cnc(Nc2ccc(C#N)cc2)nc1-n1nccn1)N(C)C(=O)/C=C/CN(C)C` [Compound 20-3], the values for the IC50 (in test [1] (setting [2]); in the test on Molm-13 cells (setting [3]); in the test on MV4-11 cells (setting [4])) were 10 to 100 nM, below 10 nM and below 10 nM, respectively.
With `C[C@@H](C(=O)NCCCC#Cc1cnc(Nc2ccc(F)c(F)c2)nc1NC1CC1)N(C)C(=O)/C=C/CN(C)C` [Compound 21-2], the IC50 (in test [1] (setting [2]); in the test with Molm-13 cells (setting [3]); in the test on MV4-11 cells (setting [4])) was below 10 nM throughout.
Consider `CCCNc1nc(Nc2cnc3[nH]nc(OC)c3c2)ncc1C#CCCCNC(=O)[C@@H]1CCCN1C(=O)/C=C/CN(C)C` [Compound 22-57, (S,E)-1-(4-(Dimethylamino)-2-butenoyl)-N-(5-(2-((3-methoxy-1H-pyrazolo[3,4-b]pyridin-5-yl)amino)-4-(propylamino)pyrimidin-5-yl)-4-pentyn-1-yl)pyrrolidine-2-carboxamide], for which the IC50 is below 10 nM in test [1] (FLT3 (WT)); below 10 nM in the test on Molm-13 cells (MOLM-13, MOLM13 cell); below 10 nM in the test with MV4-11 cells (MV4-11, MV4-11 cell).
For `CCCNc1nc(Nc2cnc3c(c2)c(C)nn3C)ncc1C#CCCCNC(=O)[C@H](C)N(C)C(=O)/C=C/CN(C)C` [Compound 22-28], the IC50 in test [1] (FLT3 (WT)) is below 10 nM; in the test with Molm-13 cells (MOLM-13, MOLM13 cell) it was below 10 nM; with MV4-11 cells (MV4-11, MV4-11 cell), below 10 nM.
As to `CNc1nc(Nc2cccc(F)c2)ncc1C#Cc1cccc(NC(=O)CN(C)C(=O)/C=C/CN(C)C)c1` [Compound 8-23], the IC50 in test [1] (setting [2]) is below 10 nM; with Molm-13 cells (setting [3]), 10 to 100 nM; in the test with MV4-11 cells (setting [4]), 10 to 100 nM.
As for `CC(C)Nc1nc(Nc2ccc(C#N)cc2)ncc1C#CCCCNC(=O)[C@H](C)N(C)C(=O)/C=C/CN(C)C` [Compound 21-33], the IC50 is below 10 nM in test [1] (FLT3 (WT)); below 10 nM in the test on Molm-13 cells (MOLM-13, MOLM13 cell); below 10 nM in the test with MV4-11 cells (MV4-11, MV4-11 cell).
Turning to `CNc1nc(Nc2ccc3cnn(C)c3c2)ncc1C#CCCCNC(=O)[C@H](C)N(C)C(=O)/C=C/CN(C)C` [Compound 10-56], the IC50 (in test [1] (setting [2]); in the test on Molm-13 cells (setting [3]); with MV4-11 cells (setting [4])) was below 10 nM each time.
Take `C[C@@H](C(=O)NCCCC#Cc1cnc(Nc2cccc(F)c2)nc1Nc1ccc(C#N)cc1)N(C)C(=O)/C=C/CN(C)C` [Compound 7-14]: the IC50 in test [1] (setting [2]) was below 10 nM; in the test with Molm-13 cells (setting [3]) it was 10 to 100 nM; in the test with MV4-11 cells (setting [4]), below 10 nM.
Consider `CCNc1nc(Nc2ccc3[nH]ncc3c2)ncc1C#CCCCNC(=O)[C@H](C)N(C)C(=O)/C=C/CN(C)C` [Compound 10-61], for which the IC50 (in test [1] (setting [2]); in the test on Molm-13 cells (setting [3]); in the test on MV4-11 cells (setting [4])) was below 10 nM throughout.
For the compound `C[C@@H](C(=O)N[C@H]1C[C@@H](C#Cc2cnc(Nc3cccc(C#N)c3)nc2NC2CC2)C1)N(C)C(=O)/C=C/CN(C)C` [Compound 13-20, (E)-N—((S)-1-(((1S,3R)-3-((2-((3-Cyanophenyl)amino)-4-(cyclopropylamino)pyrimidin-5-yl)ethynyl)cyclobutyl)amino)-1-oxopropan-2-yl)-4-(dimethylamino)-N-methyl-2-butenamide], the IC50 (in test [1] (setting [2]); in the test on Molm-13 cells (setting [3]); with MV4-11 cells (setting [4])) was below 10 nM throughout.
Regarding `CNc1ncc(C#CCCCNC(=O)[C@H](C)N(C)C(=O)/C=C/CN(C)C)c(Nc2ccc(OC)cc2)n1` [Compound 21-48], the IC50 in test [1] (FLT3 (WT)) was below 10 nM; in the test on Molm-13 cells (MOLM-13, MOLM13 cell) it was below 10 nM; in the test on MV4-11 cells (MV4-11, MV4-11 cell), 10 to 100 nM.
Regarding `CCCNc1nc(Nc2ccnc(F)c2)ncc1C#CCCCNC(=O)[C@H](C)N(C)C(=O)/C=C/CN(C)C` [Compound 9-13, (S,E)-4-(Dimethylamino)-N-(1-((5-(2-((2-fluoropyridin-4-yl)amino)-4-(propylamino)pyrimidin-5-yl)-4-pentyn-1-yl)amino)-1-oxopropan-2-yl)-N-methyl-2-butenamide], the IC50 (in test [1] (setting [2]); in the test with Molm-13 cells (setting [3]); in the test on MV4-11 cells (setting [4])) was below 10 nM each time.
As to `C[C@@H](C(=O)NCCCC#Cc1cnc(Nc2cccc(F)c2)nc1OC1CCC1)N(C)C(=O)/C=C/CN(C)C` [Compound 7-6], the IC50 in test [1] (setting [2]) is below 10 nM; in the test with Molm-13 cells (setting [3]) it was 10 to 100 nM; in the test with MV4-11 cells (setting [4]), 10 to 100 nM.
As for `CCCNc1nc(Nc2ccc3[nH]nc(OC)c3c2)ncc1C#CCCCNC(=O)[C@H](C)N(C)C(=O)/C=C/CN(C)C` [Compound 22-64], the IC50 is below 10 nM in test [1] (FLT3 (WT)); below 10 nM with Molm-13 cells (MOLM-13, MOLM13 cell); below 10 nM in the test on MV4-11 cells (MV4-11, MV4-11 cell).
For the compound `CCCN(CCC)c1nc(Nc2ccc(C#N)cc2)ncc1C#CCCCNC(=O)[C@H](C)N(C)C(=O)/C=C/CN(C)C` [Compound 10-16], the IC50 (in test [1] (setting [2]); in the test with Molm-13 cells (setting [3]); in the test with MV4-11 cells (setting [4])) was below 10 nM each time.
Take `CCCNc1nc(Nc2cccc(F)c2)ncc1C#CCCCNC(=O)[C@H]1CCCN1C(=O)/C=C/CN(C)C` [Compound 7-94]: the IC50 (in test [1] (setting [2]); in the test with Molm-13 cells (setting [3]); in the test on MV4-11 cells (setting [4])) was 10 to 100 nM throughout.
Consider `CNc1ncc(C#C[C@@H]2CCC[C@H](NC(=O)[C@H](C)N(C)C(=O)/C=C/CN(C)C)C2)c(Nc2ccc(OC)cc2)n1` [Compound 21-36], for which the IC50 is below 10 nM in test [1] (FLT3 (WT)); below 10 nM in the test with Molm-13 cells (MOLM-13, MOLM13 cell); below 10 nM in the test with MV4-11 cells (MV4-11, MV4-11 cell).
Regarding `CCCCCN(CC(=O)NCCCC#Cc1cnc(Nc2ccc(C#N)cc2)nc1NCCC)C(=O)/C=C/CN(C)C` [Compound 7-71], the IC50 (in test [1] (setting [2]); with Molm-13 cells (setting [3]); in the test with MV4-11 cells (setting [4])) was below 10 nM throughout.
As for `COCCCNc1nc(Nc2ccc3cnn(C)c3c2)ncc1C#CCCCNC(=O)[C@H](C)N(C)C(=O)/C=C/CN(C)C` [Compound 10-59], the IC50 (in test [1] (setting [2]); with Molm-13 cells (setting [3]); in the test with MV4-11 cells (setting [4])) was below 10 nM in each case.
With `CCCNc1nc(NCCc2ccncc2)ncc1C(=O)Nc1cccc(NC(=O)[C@H](C)N(C)C(=O)/C=C/CN(C)C)c1` [Compound 2-12, (S,E)-N-(3-(2-(4-(Dimethylamino)-N-methyl-2-butenamido)propanamido)phenyl)-4-(propylamino)-2-((2-(pyridin-4-yl)ethyl)amino)pyrimidine-5-carboxamide], the IC50 (in test [1] (setting [2]); with Molm-13 cells (setting [3]); with MV4-11 cells (setting [4])) was below 10 nM throughout.
As to `CCCNc1nc(Nc2cnc(NC)c(F)c2)ncc1C#CCCCNC(=O)[C@H](C)N(C)C(=O)/C=C/CN(C)C` [Compound 21-14], the IC50 is below 10 nM in test [1] (setting [2]), 10 to 100 nM with Molm-13 cells (setting [3]) and 10 to 100 nM with MV4-11 cells (setting [4]).
For `C=CC(=O)NCCNC(=O)c1cnc(NCCc2ccncc2)nc1NCCC` [Compound 2-17], the IC50 in test [1] (setting [2]) fell in the range of 10 to 100 nM; in the test with Molm-13 cells (setting [3]), 100 to 1000 nM; in the test with MV4-11 cells (setting [4]), 100 to 1000 nM.
Consider `CCNc1nc(Nc2ccc3c(cnn3C)c2)ncc1C#CCCCNC(=O)[C@H](C)N(C)C(=O)/C=C/CN(C)C` [Compound 10-53], for which the IC50 (in test [1] (setting [2]); in the test with Molm-13 cells (setting [3]); in the test on MV4-11 cells (setting [4])) was below 10 nM throughout.
On to `CCCNc1nc(Nc2ccc3nc(C)ccc3c2)ncc1C#CCCCNC(=O)[C@H](C)N(C)C(=O)/C=C/CN(C)C` [Compound 22-5], for which the IC50 in test [1] (FLT3 (WT)) fell in the range of 10 to 100 nM; with Molm-13 cells (MOLM-13, MOLM13 cell), 10 to 100 nM; in the test with MV4-11 cells (MV4-11, MV4-11 cell), 100 to 1000 nM.
Regarding `C=CC(=O)N(C)[C@@H](C)C(=O)NCCCNC(=O)c1cnc(Nc2ccc(C(N)=O)cc2)nc1NCCC` [Compound 5-3], the IC50 was below 10 nM in test [1] (setting [2]), 10 to 100 nM in the test with Molm-13 cells (setting [3]) and 10 to 100 nM in the test with MV4-11 cells (setting [4]).
On to `C[C@@H](C(=O)NCCCC#Cc1cnc(Nc2ccc(C#N)cc2)nc1NCCCF)N(C)C(=O)/C=C/CN(C)C` [Compound 10-29], for which the IC50 (in test [1] (setting [2]); in the test with Molm-13 cells (setting [3]); in the test on MV4-11 cells (setting [4])) was below 10 nM in each case.
Take `CCCNc1nc(Nc2cccc3[nH]ncc23)ncc1C#CCCCNC(=O)[C@H](C)N(C)C(=O)/C=C/CN(C)C` [Compound 21-54]: the IC50 is 10 to 100 nM in test [1] (FLT3 (WT)); 100 to 1000 nM in the test on Molm-13 cells (MOLM-13, MOLM13 cell); 10 to 100 nM in the test on MV4-11 cells (MV4-11, MV4-11 cell).
In the case of `CC[C@@H](C(=O)NCCCC#Cc1cnc(Nc2ccc(F)nc2)nc1NCC(F)(F)F)N(C)C(=O)/C=C/CN(C)C` [Compound 10-35], the results for the IC50 (in test [1] (setting [2]); in the test with Molm-13 cells (setting [3]); with MV4-11 cells (setting [4])) were below 10 nM, 10 to 100 nM and below 10 nM, respectively.
